Reference: ChEMBL document CHEMBL3885881, “DrugMatrix”

Species on record: Rattus norvegicus
Experiment: DrugMatrix - Regimen: Daily Repeat
Format: toxicity, organism-based, Sprague-Dawley
Design: regimen Daily Repeat, gender Male, age 6-8 weeks
Conditions: in vivo, iv, vehicle 100 % SALINE; for ABSOLUTE BASOPHIL / ABSOLUTE EOSINOPHIL / ABSOLUTE LYMPHOCYTE / ABSOLUTE MONOCYTE / ABSOLUTE SEGMENTED NEUTROPHIL / BASOPHIL / EOSINOPHIL / ERYTHROCYTE COUNT / HEMATOCRIT / HEMOGLOBIN / LEUKOCYTE COUNT / LYMPHOCYTE / MEAN CORPUSCULAR HEMOGLOBIN / MEAN CORPUSCULAR HEMOGLOBIN CONCENTRATION / MEAN CORPUSCULAR VOLUME / MONOCYTE / NEUTROPHIL / NUCLEATED RED BLOOD CELLS / PLATELET COUNT: tissue Blood; for ALANINE AMINOTRANSFERASE / ALBUMIN / ALKALINE PHOSPHATASE / ASPARTATE AMINOTRANSFERASE / BLOOD UREA NITROGEN / CARBON DIOXIDE / CHLORIDE / CHOLESTEROL / CREATINE PHOSPHOKINASE / CREATININE / GLUCOSE / LACTATE DEHYDROGENASE / LIPASE / PHOSPHORUS / POTASSIUM / SODIUM / TOTAL BILIRUBIN / TOTAL PROTEIN / URIC ACID: tissue Plasma
[1] = 100 mg/kg, 72 h, dose level Low, time 3 day
[2] = 100 mg/kg, 120 h, dose level Low, time 5 day
[3] = 755 mg/kg, 72 h, dose level High, time 3 day
[4] = 755 mg/kg, 120 h, dose level High, time 5 day

Structure (SMILES): O=S(=O)([O-])CCS.[Na+] [MESNA]
- ABSOLUTE BASOPHIL [1]: 0 CELLS/uL
- ABSOLUTE EOSINOPHIL [1]: 43.67 CELLS/uL
- ABSOLUTE LYMPHOCYTE [1]: 13323 CELLS/uL
- ABSOLUTE MONOCYTE [1]: 251.67 CELLS/uL
- ABSOLUTE SEGMENTED NEUTROPHIL [1]: 848.33 CELLS/uL
- BASOPHIL [1]: 0%
- EOSINOPHIL [1]: 0.33%
- ERYTHROCYTE COUNT [1]: 6 x10E6/uL
- HEMATOCRIT [1]: 37.23%
- HEMOGLOBIN [1]: 13.77 G/DL
- LEUKOCYTE COUNT [1]: 14.47 x10E3/uL
- LYMPHOCYTE [1]: 92%
- MEAN CORPUSCULAR HEMOGLOBIN [1]: 22.97 pg
- MEAN CORPUSCULAR HEMOGLOBIN CONCENTRATION [1]: 36.97 G/DL
- MEAN CORPUSCULAR VOLUME [1]: 62.07 fL
- MONOCYTE [1]: 1.67%
- NEUTROPHIL [1]: 6%
- NUCLEATED RED BLOOD CELLS [1]: 0.67 /100WBC
- PLATELET COUNT [1]: 1218 x10E3/uL
- ALANINE AMINOTRANSFERASE [1]: 53.67 u/L
- ALBUMIN [1]: 4.3 G/DL
- ALKALINE PHOSPHATASE [1]: 358.33 u/L
- ASPARTATE AMINOTRANSFERASE [1]: 87 u/L
- BLOOD UREA NITROGEN [1]: 15 mg/dL
- CARBON DIOXIDE [1]: 26 mmol/L
- CHLORIDE [1]: 102.33 MEQ/L
- CHOLESTEROL [1]: 79.33 mg/dL
- CREATINE PHOSPHOKINASE [1]: 501.33 u/L
- CREATININE [1]: 0.29 mg/dL
- GLUCOSE [1]: 159.67 mg/dL
- LACTATE DEHYDROGENASE [1]: 166 u/L
- LIPASE [1]: 12 u/L
- PHOSPHORUS [1]: 12.7 mg/dL
- POTASSIUM [1]: 6.86 MEQ/L
- SODIUM [1]: 147.77 MEQ/L
- TOTAL BILIRUBIN [1]: 0.2 mg/dL
- TOTAL PROTEIN [1]: 6.23 G/DL
- URIC ACID [1]: 1.63 mg/dL
- ABSOLUTE BASOPHIL [2]: 0 CELLS/uL
- ABSOLUTE EOSINOPHIL [2]: 120.33 CELLS/uL
- ABSOLUTE LYMPHOCYTE [2]: 14708 CELLS/uL
- ABSOLUTE MONOCYTE [2]: 625.67 CELLS/uL
- ABSOLUTE SEGMENTED NEUTROPHIL [2]: 879.33 CELLS/uL
- BASOPHIL [2]: 0%
- EOSINOPHIL [2]: 0.67%
- ERYTHROCYTE COUNT [2]: 5.55 x10E6/uL
- HEMATOCRIT [2]: 36.7%
- HEMOGLOBIN [2]: 13.53 G/DL
- LEUKOCYTE COUNT [2]: 16.33 x10E3/uL
- LYMPHOCYTE [2]: 90.33%
- MEAN CORPUSCULAR HEMOGLOBIN [2]: 24.4 pg
- MEAN CORPUSCULAR HEMOGLOBIN CONCENTRATION [2]: 36.9 G/DL
- MEAN CORPUSCULAR VOLUME [2]: 66.07 fL
- MONOCYTE [2]: 3.67%
- NEUTROPHIL [2]: 5.33%
- NUCLEATED RED BLOOD CELLS [2]: 0 /100WBC
- PLATELET COUNT [2]: 1137 x10E3/uL
- ALANINE AMINOTRANSFERASE [2]: 56.67 u/L
- ALBUMIN [2]: 4.33 G/DL
- ALKALINE PHOSPHATASE [2]: 375 u/L
- ASPARTATE AMINOTRANSFERASE [2]: 83.67 u/L
- BLOOD UREA NITROGEN [2]: 15.33 mg/dL
- CARBON DIOXIDE [2]: 22.67 mmol/L
- CHLORIDE [2]: 102.67 MEQ/L
- CHOLESTEROL [2]: 87.33 mg/dL
- CREATINE PHOSPHOKINASE [2]: 282.67 u/L
- CREATININE [2]: 0.27 mg/dL
- GLUCOSE [2]: 153.67 mg/dL
- LACTATE DEHYDROGENASE [2]: 140.67 u/L
- LIPASE [2]: 11 u/L
- PHOSPHORUS [2]: 11.4 mg/dL
- POTASSIUM [2]: 6.06 MEQ/L
- SODIUM [2]: 146.67 MEQ/L
- TOTAL BILIRUBIN [2]: 0.3 mg/dL
- TOTAL PROTEIN [2]: 6.4 G/DL
- URIC ACID [2]: 1.07 mg/dL
- ABSOLUTE BASOPHIL [3]: 0 CELLS/uL
- ABSOLUTE EOSINOPHIL [3]: 65.67 CELLS/uL
- ABSOLUTE LYMPHOCYTE [3]: 13484.33 CELLS/uL
- ABSOLUTE MONOCYTE [3]: 234.33 CELLS/uL
- ABSOLUTE SEGMENTED NEUTROPHIL [3]: 1215.67 CELLS/uL
- BASOPHIL [3]: 0%
- EOSINOPHIL [3]: 0.33%
- ERYTHROCYTE COUNT [3]: 5.37 x10E6/uL
- HEMATOCRIT [3]: 34.63%
- HEMOGLOBIN [3]: 12.87 G/DL
- LEUKOCYTE COUNT [3]: 15 x10E3/uL
- LYMPHOCYTE [3]: 90%
- MEAN CORPUSCULAR HEMOGLOBIN [3]: 23.93 pg
- MEAN CORPUSCULAR HEMOGLOBIN CONCENTRATION [3]: 37.17 G/DL
- MEAN CORPUSCULAR VOLUME [3]: 64.43 fL
- MONOCYTE [3]: 1.67%
- NEUTROPHIL [3]: 8%
- NUCLEATED RED BLOOD CELLS [3]: 0 /100WBC
- PLATELET COUNT [3]: 960.33 x10E3/uL
- ALANINE AMINOTRANSFERASE [3]: 55.33 u/L
- ALBUMIN [3]: 4.07 G/DL
- ALKALINE PHOSPHATASE [3]: 330.67 u/L
- ASPARTATE AMINOTRANSFERASE [3]: 74.33 u/L
- BLOOD UREA NITROGEN [3]: 17.33 mg/dL
- CARBON DIOXIDE [3]: 25.67 mmol/L
- CHLORIDE [3]: 102 MEQ/L
- CHOLESTEROL [3]: 76 mg/dL
- CREATINE PHOSPHOKINASE [3]: 342.67 u/L
- CREATININE [3]: 0.21 mg/dL
- GLUCOSE [3]: 165.33 mg/dL
- LACTATE DEHYDROGENASE [3]: 152.67 u/L
- LIPASE [3]: 9.67 u/L
- PHOSPHORUS [3]: 12.4 mg/dL
- POTASSIUM [3]: 6.83 MEQ/L
- SODIUM [3]: 143.67 MEQ/L
- TOTAL BILIRUBIN [3]: 0.13 mg/dL
- TOTAL PROTEIN [3]: 6.23 G/DL
- URIC ACID [3]: 1.8 mg/dL
- ABSOLUTE BASOPHIL [4]: 0 CELLS/uL
- ABSOLUTE EOSINOPHIL [4]: 0 CELLS/uL
- ABSOLUTE LYMPHOCYTE [4]: 18795 CELLS/uL
- ABSOLUTE MONOCYTE [4]: 498.33 CELLS/uL
- ABSOLUTE SEGMENTED NEUTROPHIL [4]: 1040 CELLS/uL
- BASOPHIL [4]: 0%
- EOSINOPHIL [4]: 0%
- ERYTHROCYTE COUNT [4]: 5.72 x10E6/uL
- HEMATOCRIT [4]: 34.77%
- HEMOGLOBIN [4]: 13.27 G/DL
- LEUKOCYTE COUNT [4]: 20.33 x10E3/uL
- LYMPHOCYTE [4]: 92.33%
- MEAN CORPUSCULAR HEMOGLOBIN [4]: 23.2 pg
- MEAN CORPUSCULAR HEMOGLOBIN CONCENTRATION [4]: 38.2 G/DL
- MEAN CORPUSCULAR VOLUME [4]: 60.87 fL
- MONOCYTE [4]: 2.67%
- NEUTROPHIL [4]: 5%
- NUCLEATED RED BLOOD CELLS [4]: 0 /100WBC
- PLATELET COUNT [4]: 1209.33 x10E3/uL
- ALANINE AMINOTRANSFERASE [4]: 54.33 u/L
- ALBUMIN [4]: 4.23 G/DL
- ALKALINE PHOSPHATASE [4]: 290 u/L
- ASPARTATE AMINOTRANSFERASE [4]: 83.67 u/L
- BLOOD UREA NITROGEN [4]: 19.33 mg/dL
- CARBON DIOXIDE [4]: 24.33 mmol/L
- CHLORIDE [4]: 105.67 MEQ/L
- CHOLESTEROL [4]: 75.33 mg/dL
- CREATINE PHOSPHOKINASE [4]: 517 u/L
- CREATININE [4]: 0.21 mg/dL
- GLUCOSE [4]: 155 mg/dL
- LACTATE DEHYDROGENASE [4]: 338.33 u/L
- LIPASE [4]: 9.67 u/L
- PHOSPHORUS [4]: 12.17 mg/dL
- POTASSIUM [4]: 7.45 MEQ/L
- SODIUM [4]: 147 MEQ/L
- TOTAL BILIRUBIN [4]: 0.17 mg/dL
- TOTAL PROTEIN [4]: 6.23 G/DL
- URIC ACID [4]: 2.07 mg/dL
